Test results from patent US11014911B2, “CDK2 inhibitors” (Pfizer Inc., priority 2019, dated 2021).

Columns and labels:
[1] = molecular target: CDK2/Cyclin E1 full length (Homo sapiens (Human), UniProt P24941); assay: CDK2/Cyclin E1 full length mobility shift assay; type: biochemical
GSK3β (H350L) = GSK3β (H350L) (Homo sapiens (Human), UniProt P49841); assay: biochemical; conditions: GSK3β Ki (nM)
Sequence of GSK3β (H350L) (P49841 whole entry, stated change not applied): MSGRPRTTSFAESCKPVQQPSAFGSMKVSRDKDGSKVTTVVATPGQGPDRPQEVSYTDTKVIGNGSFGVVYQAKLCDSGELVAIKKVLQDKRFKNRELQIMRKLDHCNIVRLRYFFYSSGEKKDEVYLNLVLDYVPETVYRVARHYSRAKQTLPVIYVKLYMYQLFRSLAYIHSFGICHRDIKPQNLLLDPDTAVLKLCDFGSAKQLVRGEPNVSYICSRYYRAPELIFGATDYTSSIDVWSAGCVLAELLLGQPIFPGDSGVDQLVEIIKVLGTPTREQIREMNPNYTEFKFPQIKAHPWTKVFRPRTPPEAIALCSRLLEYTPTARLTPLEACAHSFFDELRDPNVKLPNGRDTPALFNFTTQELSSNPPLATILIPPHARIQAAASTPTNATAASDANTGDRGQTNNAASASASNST
Method: The assay was initiated with the addition of ATP, following 15 minutes pre-incubation of enzyme and inhibitor at room temperature in the reaction mixture. The reaction was stopped after 30 minutes at room temperature by the addition of 50 μL of 80 mM EDTA.

Row | Ki [1] [nM] | Ki (GSK3β (H350L)) [nM] | SMILES
1 | 0.14 | 18.7 | CC(CC(F)(F)F)NC(=O)O[C@@H]1CC[C@H](c2cc(NC(=O)Cc3ccon3)n[nH]2)C1 (single isomer, unassigned) [Example 64]
2 | 0.33 | 21.6 | COc1cc(CC(=O)Nc2cc([C@H]3CC[C@@H](OC(=O)NC(C)CC(F)F)C3)[nH]n2)ccn1 (single isomer, unassigned) [Example 98]
3 | 0.1 | 12 | CC(CC(F)(F)F)NC(=O)O[C@@H]1CC[C@H](c2cc(NC(=O)Cc3cnco3)n[nH]2)C1 (single isomer, unassigned) [Example 84]
4 | 0.19 | 80.7 | CC1(NC(=O)O[C@@H]2CC[C@H](c3cc(NC(=O)Cc4ccccc4)n[nH]3)C2)CCOC1 (single isomer, unassigned) [Example 124]
5 | 1.48 | 32.9 | Cc1cnc(CC(=O)Nc2cc([C@H]3CC[C@@H](OC(=O)NC(C)CC(F)(F)F)C3)[nH]n2)o1 (single isomer, unassigned) [Example 81]
6 | 0.22 | 9.15 | COc1cc(CC(=O)Nc2cc([C@H]3CC[C@@H](OC(=O)N4CCC4C)C3)[nH]n2)ccn1 (single isomer, unassigned) [Example 153]
7 | 0.09 | 34.9 | CC1(NC(=O)O[C@@H]2CC[C@H](c3cc(NC(=O)Cc4cc(F)cc(F)c4)n[nH]3)C2)CCOC1 (single isomer, unassigned) [Example 120]
8 | 0.15 | 5.93 | C[C@H]1[C@H](C#N)CN1C(=O)O[C@@H]1CC[C@H](c2cc(NC(=O)Cc3ccccc3)n[nH]2)C1 (single isomer, unassigned) [Example 161]
9 | 0.26 | 20.6 | CCCNC(=O)O[C@H]1CC[C@@H](c2cc(NC(=O)C3COc4ccccc43)n[nH]2)C1 (single isomer, unassigned) [Example 24]
10 | 0.1 | 4.96 | Cc1ccc(CC(=O)Nc2cc([C@H]3CC[C@@H](OC(=O)NC(C)CC(F)(F)F)C3)[nH]n2)cn1 (single isomer, unassigned) [Example 76]
11 | 0.25 | 12.9 | CC(CC(F)(F)F)NC(=O)O[C@@H]1CC[C@H](c2cc(NC(=O)Cc3ccno3)n[nH]2)C1 (single isomer, unassigned) [Example 86]
12 | 0.39 | 18 | Cc1cnc(CC(=O)Nc2cc([C@H]3CC[C@@H](OC(=O)NC(C)CC(F)F)C3)[nH]n2)o1 (single isomer, unassigned) [Example 97]
13 | 1.01 | 33.8 | Cc1cc(CC(=O)Nc2cc([C@H]3CC[C@@H](OC(=O)NC(C)CC(F)(F)F)C3)[nH]n2)on1 (single isomer, unassigned) [Example 71]
14 | 0.27 | 26.6 | COc1ncc(CC(=O)Nc2cc([C@H]3CC[C@@H](OC(=O)NC4(C)CCOC4)C3)[nH]n2)s1 (single isomer, unassigned) [Example 126]
15 | 0.25 | 42.8 | CC(C)NC(=O)O[C@@H]1CC[C@H](c2cc(NC(=O)C3COc4ccccc43)n[nH]2)C1 (single isomer, unassigned) [Example 56]
16 | 1.25 | 11.3 | O=C(Cc1cc(F)cc(F)c1)Nc1cc([C@@H]2CC[C@H](OC(=O)NCC3CCCOC3)C2)[nH]n1 (single isomer, unassigned) [Example 515]
17 | 0.54 | 16.5 | Cc1ncc(CC(=O)Nc2cc([C@H]3CC[C@@H](OC(=O)NC(C)CC(F)(F)F)C3)[nH]n2)s1 (single isomer, unassigned) [Example 79]
18 | 0.42 | 3.44 | CC(CC(F)(F)F)N(C)C(=O)O[C@@H]1CC[C@H](c2cc(NC(=O)Cc3cnn(C)c3)n[nH]2)C1 (single isomer, unassigned) [Example 414]
19 | 0.15 | 12.8 | Cc1cc(CC(=O)Nc2cc([C@H]3CC[C@@H](OC(=O)NC(C)CC(F)(F)F)C3)[nH]n2)on1 (single isomer, unassigned) [Example 72]
20 | 0.36 | 16.3 | COc1cnc(CC(=O)Nc2cc([C@H]3CC[C@@H](OC(=O)NC(C)CC(F)(F)F)C3)[nH]n2)cn1 (single isomer, unassigned) [Example 68]
21 | 0.08 | 19.4 | CC1(NC(=O)O[C@@H]2CC[C@H](c3cc(NC(=O)Cc4cc(F)cc(F)c4)n[nH]3)C2)CCOC1 (single isomer, unassigned) [Example 121]
22 | 0.3 | 13.2 | Cc1cnc(CC(=O)Nc2cc([C@H]3CC[C@@H](OC(=O)NC(C)CC(F)(F)F)C3)[nH]n2)cn1 (single isomer, unassigned) [Example 74]
23 | 0.23 | 2.36 | CC(CC(F)(F)F)N(C)C(=O)O[C@@H]1CC[C@H](c2cc(NC(=O)Cc3ccno3)n[nH]2)C1 (single isomer, unassigned) [Example 90]
24 | 0.22 | 12.7 | COc1ccc(CC(=O)Nc2cc([C@H]3CC[C@@H](OC(=O)NC4(C)CCOC4)C3)[nH]n2)cn1 (single isomer, unassigned) [Example 122]
25 | 0.07 | 13.8 | CCC1(C)CCN1C(=O)O[C@@H]1CC[C@H](c2cc(NC(=O)Cc3cc(C)no3)n[nH]2)C1 (single isomer, unassigned) [Example 603]
26 | 0.15 | 3.89 | COc1ccc(CC(=O)Nc2cc([C@H]3CC[C@@H](OC(=O)N4CCC4C)C3)[nH]n2)cn1 (single isomer, unassigned) [Example 151]
27 | 2.7 | 135 | CCCNC(=O)O[C@H]1CC[C@@H](c2cc(NC(=O)C3COc4ccccc43)n[nH]2)C1 (single isomer, unassigned) [Example 25]

Row | SMILES | Ki [1] [nM] | Ki (GSK3β (H350L)) [nM]
28 | CC(CC(F)F)NC(=O)O[C@@H]1CC[C@H](c2cc(NC(=O)Cc3cnn(C)c3)n[nH]2)C1 (single isomer, unassigned) [Example 386] | 0.66 | 45.9
29 | CCC(NC(=O)O[C@@H]1CC[C@H](c2cc(NC(=O)Cc3ccnc(OC)c3)n[nH]2)C1)C(F)(F)F (single isomer, unassigned) [Example 406] | 1.81 | 73.3
30 | Cc1cnc(CC(=O)Nc2cc([C@H]3CC[C@@H](OC(=O)NC4(C)CCOC4)C3)[nH]n2)o1 (single isomer, unassigned) [Example 477] | 1.04 | 59.2
31 | CC1(NC(=O)O[C@@H]2CC[C@H](c3cc(NC(=O)Cc4cnc(C(F)(F)F)cn4)n[nH]3)C2)CCOC1 (single isomer, unassigned) [Example 494] | 1.02 | 53.3
32 | CCC(CO)CNC(=O)O[C@@H]1CC[C@H](c2cc(NC(=O)Cc3ccc(OC)nc3)n[nH]2)C1 (single isomer, unassigned) [Example 532] | 0.89 | 2.97
33 | COc1cnc(CC(=O)Nc2cc([C@H]3CC[C@@H](OC(=O)NC4(C)CC4)C3)[nH]n2)cn1 [Example 6, (1R,3S)-3-(3-{[(5-methoxypyrazin-2-yl)acetyl]amino}-1H-pyrazol-5-yl)cyclopentyl (1-methylcyclopropyl)carbamate] | 0.38 | 32.3
34 | Cc1ncc(CC(=O)Nc2cc([C@H]3CC[C@@H](OC(=O)NC4(C)CCOC4)C3)[nH]n2)s1 (single isomer, unassigned) [Example 481] | 0.53 | 44.6
35 | CC1(NC(=O)O[C@@H]2CC[C@H](c3cc(NC(=O)Cc4ccno4)n[nH]3)C2)CCOC1 (single isomer, unassigned) [Example 473] | 0.36 | 66.2
36 | Cc1ncc(CC(=O)Nc2cc([C@H]3CC[C@@H](OC(=O)N4C[C@@H](C#N)[C@@H]4C)C3)[nH]n2)s1 (single isomer, unassigned) [Example 160] | 0.15 | 1.72
37 | CCC(CO)CNC(=O)O[C@@H]1CC[C@H](c2cc(NC(=O)Cc3ccnc(OC)c3)n[nH]2)C1 (single isomer, unassigned) [Example 534] | 0.85 | 4.63
38 | Cc1ncc(CC(=O)Nc2cc([C@H]3CC[C@@H](OC(=O)NC(C)C(C)(F)F)C3)[nH]n2)s1 (single isomer, unassigned) [Example 391] | 1.38 | 38
39 | CCC(NC(=O)O[C@@H]1CC[C@H](c2cc(NC(=O)Cc3ccc(C)nc3)n[nH]2)C1)C(F)(F)F (single isomer, unassigned) [Example 399] | 0.47 | 68.8
40 | CCC(NC(=O)O[C@@H]1CC[C@H](c2cc(NC(=O)Cc3cnc(C)s3)n[nH]2)C1)C(F)(F)F (single isomer, unassigned) [Example 404] | 1.38 | 84.3
41 | CC1(NC(=O)O[C@@H]2CC[C@H](c3cc(NC(=O)Cc4cnc(C(F)(F)F)cn4)n[nH]3)C2)CCOC1 (single isomer, unassigned) [Example 493] | 0.98 | 157
42 | CCC(CO)CNC(=O)O[C@@H]1CC[C@H](c2cc(NC(=O)Cc3cnc(C)s3)n[nH]2)C1 (single isomer, unassigned) [Example 529] | 0.73 | 3.92
43 | CCC(NC(=O)O[C@@H]1CC[C@H](c2cc(NC(=O)Cc3ccnc(OC)c3)n[nH]2)C1)C(F)(F)F (single isomer, unassigned) [Example 405] | 1.37 | 97.9
44 | CCC(CO)CNC(=O)O[C@@H]1CC[C@H](c2cc(NC(=O)Cc3ccnc(OC)c3)n[nH]2)C1 (single isomer, unassigned) [Example 535] | 1.21 | 3.8
45 | CC(CC(F)(F)F)NC(=O)O[C@@H]1CC[C@H](c2cc(NC(=O)Cc3cnn(C(C)C)c3)n[nH]2)C1 (single isomer, unassigned) [Example 408] | 0.29 | 17.9
46 | CC[C@H](C)NC(=O)O[C@@H]1CC[C@H](c2cc(NC(=O)Cc3ccno3)n[nH]2)C1 [Example 16, (1R,3S)-3-{3-[(1,2-oxazol-5-ylacetyl)amino]-1H-pyrazol-5-yl}cyclopentyl (2S)-butan-2-ylcarbamate] | 0.37 | 51.7
47 | CCC(NC(=O)O[C@@H]1CC[C@H](c2cc(NC(=O)Cc3cnc(C)s3)n[nH]2)C1)C(F)(F)F (single isomer, unassigned) [Example 403] | 1.76 | 76.1
